≈ marks a conversion by molar mass, not a printed value. Non-standard residues stand in square brackets, D forms with d. Residues, ends and D or L forms follow the SMILES beside them. Orn = NCCC[C@H](N)C(=O)O; Dab = NCC[C@H](N)C(=O)O
Assays:
P. aeruginosa PAO1 GFP [1] = test: MIC against planktonic cells, absorbance at 600 nm; type: cell-based, Pseudomonas aeruginosa; settings: absorbance 600 nm
Method: (§1) Figure 1 The MIC (A), MBIC (B) and MBEC (C) values for the tritrpticin analog peptides were assessed against Pa PAO1 GFP. The MIC values were determined by measuring the absorbance of bacterial cells at 600 nm. The MBIC and MBEC values were determined by recording the fluorescence at 480 nm and 530 nm from the biofilms of GFP-expressing PAO1. Three biological replicates were run for each test sample, and the mean was calculated for the recorded absorption or fluorescence values. In the graphs, the error bars represent the standard deviation (±SD).
(§2) Figure 2 The MIC (A), MBIC (B) and MBEC (C) values for the tritrpticin-Lys derivative peptides were assessed against Pa PAO1 GFP. The MIC values were determined by measuring the absorbance of bacterial cells at 600 nm. The MBIC and MBEC values were determined by recording the fluorescence at 480 nm and 530 nm from the biofilms of GFP-expressing PAO1. Three replicates were run for each sample, the values were averaged and the error bars represent the standard deviation (±SD).
(§3) The methods to determine the MIC, MBIC and MBEC have been described in detail in our previous publication. The green fluorescent protein (GFP)-producing P. aeruginosa and S. aureus strains that were used in this work were also described in the earlier publication. Fluorescence detection was used as the main method to estimate the number of cells entrapped in the biofilm matrix. The methodology used for evaluation of the antibiofilm properties against an original Pseudomonas PA01 strain by crystal violet dye staining and the use of the Calgary biofilm device has been described elsewhere. The regular PA01 strain was provided by Dr. J. Harrison, Calgary. All measurements were carried out on an Eppendorf AF2200 plate reader. Every 96-well plate included controls for bacterial cell growth without peptide treatment and media alone. All measurements were carried out in triplicate, and the values in the figures represent the average and the error bars are standard deviation.

P. aeruginosa PAO1 GFP [2] = test: MBIC, prevention of biofilm formation, GFP fluorescence method; type: cell-based, Pseudomonas aeruginosa
Method: as §1, §2, §3

P. aeruginosa PAO1 GFP [3] = test: MBEC, biofilm eradication, GFP fluorescence method; type: cell-based, Pseudomonas aeruginosa
Method: as §1, §2, §3

S. aureus GFP [4] = test: MIC against planktonic cells, absorbance at 600 nm; type: cell-based, Staphylococcus aureus; settings: Table 4; Sa GFP, 10% TSB and 0.1% glucose; absorbance 600 nm; mean of three biological replicates
Method: as §1, with “3” for “1”, “Sa” for “Pa PAO1”, “Sa.” for “PAO1.”
as §3

S. aureus GFP [5] = test: MBIC, GFP fluorescence method; type: cell-based, Staphylococcus aureus; settings: Table 4, Sa GFP, 10% TSB and 0.1% glucose, mean of three biological replicates
Method: as §1, with “3” for “1”, “Sa” for “Pa PAO1”, “Sa.” for “PAO1.”
as §3

S. aureus GFP [6] = test: MBEC, GFP fluorescence method; type: cell-based, Staphylococcus aureus; settings: Table 4, Sa GFP, 10% TSB and 0.1% glucose, mean of three biological replicates
Method: as §1, with “3” for “1”, “Sa” for “Pa PAO1”, “Sa.” for “PAO1.”
as §3

S. aureus GFP [7] = type: cell-based, Staphylococcus aureus; settings: Table 4; Sa GFP; lowest concentration of peptide with no bacterial growth seen on the spot agar plate
Text: as §3

P. aeruginosa PAO1 [8] = type: cell-based, Pseudomonas aeruginosa; settings: Table 6, Tritrp-Lys derivatives; PAO1, BM2; absorbance 600 nm; three replicates; unit not given
Method: (§4) Figure 4 The MIC (A), MBIC (B) and MBRC (C) values for the peptides were assessed against P. aeruginosa PAO1 in the presence of 1× BM2. The inhibition of planktonic cells, the inhibition of biofilm cells and the reduction in biofilm cells were determined for the peptides by recording of the planktonic cells at 600 nm and quantification of biofilms formed by Pa PAO1 using crystal violet at 595 nm, respectively. Three biological replicates were run for each test sample, and the mean was calculated for the recorded absorption values. Data points with error bars indicate the standard deviation (±SD).
(§5) Figure 6 The MIC (A), MBIC (B) and MBEC (C) values for the tritrpticin-Lys derivatives against P. aeruginosa PAO1 were assessed by the crystal violet (CV) assay for the measurement of inhibition of biofilm formation and eradication of biofilm cells, respectively. The biofilm cells were rinsed, stained with 0.1% crystal violet for 15 min and then rinsed again. The CV was released from biofilm cells by the addition of 95% ethanol and quantified by reading on a spectrometer at 595 nm. Three replicates were run for each sample, the values were averaged and the error bars represent the standard deviation (±SD).
as §3

P. aeruginosa PAO1 [9] = type: cell-based; settings: Table 6, Tritrp-Lys derivatives; PAO1, BM2; 0.1% crystal violet 15 min, released with 95% ethanol, 595 nm; three replicates; unit not given
Method: We note the close agreement with the MBIC and MBEC values determined by the fluorescence and CV methods, similar to what we found in our previous work for an S. aureus MRSA strain [23]. We also re-evaluated the MBEC values that are measured using the Calgary biofilm device (CBD), where biofilms form on pegs, rather than at the bottom of the 96-well plates. […] In particular, we find that the single Pro9Ala Tritrp-P9A-substituted version has better MIC, MBIC and MBEC activities than the parent peptide as well as the Tritrp-P59A analog with both prolines substituted to Ala.
as §4, §5, §3

[10] = Table 2, BM2 medium, mean of three biological replicates
[11] = Table 3, Tritrp-Lys derivatives, BM2 medium, three replicates

N=C(N)NCCC[C@H](NC(=O)[C@H](CCCNC(=N)N)NC(=O)[C@@H](N)CCCNC(=N)N)C(=O)N[C@@H](Cc1c[nH]c2ccccc12)C(=O)N[C@@H](Cc1c[nH]c2ccccc12)C(=O)N[C@@H](Cc1c[nH]c2ccccc12)C(N)=O [RRRWWW-NH2] (H-RRRWWW-NH2)
MIC at 600 nm LD50 (P. aeruginosa PAO1 GFP [1]; [10]): 32 µM (≈ 33.4 µg/mL) | MIC at 600 nm LD90 (P. aeruginosa PAO1 GFP [1]; [10]): 128 µM (≈ 134 µg/mL) | MBIC at 488 and 530 nm LD50 (P. aeruginosa PAO1 GFP [2]; [10]): 16 µmol/L | MBIC at 488 and 530 nm LD90 (P. aeruginosa PAO1 GFP [2]; [10]): 128 µmol/L | MBEC at 488 and 530 nm LD50 (P. aeruginosa PAO1 GFP [3]; [10]): 64 µmol/L | MBEC at 488 and 530 nm LD90 (P. aeruginosa PAO1 GFP [3]; [10]): >128 µmol/L | MIC at 600 nm LD50 (S. aureus GFP [4]): 1 µM (≈ 1.04 µg/mL) | MIC at 600 nm LD90 (S. aureus GFP [4]): 1 µM (≈ 1.04 µg/mL) | MBIC at 488 and 530 nm LD50 (S. aureus GFP [5]): 1 µmol/L | MBIC at 488 and 530 nm LD90 (S. aureus GFP [5]): 1 µmol/L | MBEC at 488 and 530 nm LD50 (S. aureus GFP [6]): 0.5 µmol/L | MBEC at 488 and 530 nm LD90 (S. aureus GFP [6]): 4 µmol/L | MBC Agar Plate (S. aureus GFP [7]): 4 µM (≈ 4.18 µg/mL)

N=C(N)NCCC[C@H](NC(=O)[C@H](Cc1c[nH]c2ccccc12)NC(=O)[C@H](Cc1c[nH]c2ccccc12)NC(=O)[C@H](Cc1c[nH]c2ccccc12)NC(=O)[C@H](CCCNC(=N)N)NC(=O)[C@@H](N)CCCNC(=N)N)C(N)=O [RRWWWR-NH2] (H-RRWWWR-NH2)
MIC at 600 nm LD50 (P. aeruginosa PAO1 GFP [1]; [10]): 64 µM (≈ 66.8 µg/mL) | MIC at 600 nm LD90 (P. aeruginosa PAO1 GFP [1]; [10]): 128 µM (≈ 134 µg/mL) | MBIC at 488 and 530 nm LD50 (P. aeruginosa PAO1 GFP [2]; [10]): 16 µmol/L | MBIC at 488 and 530 nm LD90 (P. aeruginosa PAO1 GFP [2]; [10]): 128 µmol/L | MBEC at 488 and 530 nm LD50 (P. aeruginosa PAO1 GFP [3]; [10]): 128 µmol/L | MBEC at 488 and 530 nm LD90 (P. aeruginosa PAO1 GFP [3]; [10]): >128 µmol/L | MIC at 600 nm LD50 (S. aureus GFP [4]): 1 µM (≈ 1.04 µg/mL) | MIC at 600 nm LD90 (S. aureus GFP [4]): 1 µM (≈ 1.04 µg/mL) | MBIC at 488 and 530 nm LD50 (S. aureus GFP [5]): 1 µmol/L | MBIC at 488 and 530 nm LD90 (S. aureus GFP [5]): 1 µmol/L | MBEC at 488 and 530 nm LD50 (S. aureus GFP [6]): 1 µmol/L | MBEC at 488 and 530 nm LD90 (S. aureus GFP [6]): 4 µmol/L | MBC Agar Plate (S. aureus GFP [7]): 4 µM (≈ 4.18 µg/mL)

CC(C)C[C@H](NC(=O)[C@H](Cc1ccccc1)NC(=O)[C@@H]1CCCN1C(=O)[C@H](Cc1c[nH]c2ccccc12)NC(=O)[C@H](Cc1c[nH]c2ccccc12)NC(=O)[C@H](Cc1c[nH]c2ccccc12)NC(=O)[C@@H]1CCCN1C(=O)[C@H](Cc1ccccc1)NC(=O)[C@H](CCN)NC(=O)[C@H](CCN)NC(=O)[C@@H](N)C(C)C)C(=O)N[C@@H](CCN)C(=O)N[C@@H](CCN)C(N)=O [Tritrp-Dab] (H-V[Dab][Dab]FPWWWPFL[Dab][Dab]-NH2; N-terminus assumed)
MIC at 600 nm LD50 (P. aeruginosa PAO1 GFP [1]; [11]): 8 µM (≈ 13.4 µg/mL) | MIC at 600 nm LD90 (P. aeruginosa PAO1 GFP [1]; [11]): 16 µM (≈ 26.8 µg/mL) | MBIC at 488 and 530 nm LD50 (P. aeruginosa PAO1 GFP [2]; [11]): 8 µmol/L | MBIC at 488 and 530 nm LD90 (P. aeruginosa PAO1 GFP [2]; [11]): 16 µmol/L | MBEC at 488 and 530 nm LD50 (P. aeruginosa PAO1 GFP [3]; [11]): 16 µmol/L | MBEC at 488 and 530 nm LD90 (P. aeruginosa PAO1 GFP [3]; [11]): 64 µmol/L | MIC at 600 nm LD50 (P. aeruginosa PAO1 [8]): 16 | MIC at 600 nm LD90 (P. aeruginosa PAO1 [8]): 16 | MBEC (CV at 595 nm) LD90 (P. aeruginosa PAO1 [9]): 64 | MBIC (CV at 595 nm) LD90 (P. aeruginosa PAO1 [9]): 16

CC(C)C[C@H](NC(=O)[C@H](Cc1ccccc1)NC(=O)[C@@H]1CCCN1C(=O)[C@H](Cc1c[nH]c2ccccc12)NC(=O)[C@H](Cc1c[nH]c2ccccc12)NC(=O)[C@H](Cc1c[nH]c2ccccc12)NC(=O)[C@@H]1CCCN1C(=O)[C@H](Cc1ccccc1)NC(=O)[C@H](CCCN)NC(=O)[C@H](CCCN)NC(=O)[C@@H](N)C(C)C)C(=O)N[C@@H](CCCN)C(=O)N[C@@H](CCCN)C(N)=O [Tritrp-Orn] (H-V[Orn][Orn]FPWWWPFL[Orn][Orn]-NH2; N-terminus assumed)
MIC at 600 nm LD50 (P. aeruginosa PAO1 GFP [1]; [11]): 16 µM (≈ 27.7 µg/mL) | MIC at 600 nm LD90 (P. aeruginosa PAO1 GFP [1]; [11]): 16 µM (≈ 27.7 µg/mL) | MBIC at 488 and 530 nm LD50 (P. aeruginosa PAO1 GFP [2]; [11]): 16 µmol/L | MBIC at 488 and 530 nm LD90 (P. aeruginosa PAO1 GFP [2]; [11]): 16 µmol/L | MBEC at 488 and 530 nm LD50 (P. aeruginosa PAO1 GFP [3]; [11]): 64 µmol/L | MBEC at 488 and 530 nm LD90 (P. aeruginosa PAO1 GFP [3]; [11]): 128 µmol/L | MIC at 600 nm LD50 (P. aeruginosa PAO1 [8]): 16 | MIC at 600 nm LD90 (P. aeruginosa PAO1 [8]): 16 | MBEC (CV at 595 nm) LD90 (P. aeruginosa PAO1 [9]): 128 | MBIC (CV at 595 nm) LD90 (P. aeruginosa PAO1 [9]): 32

From publication PMC11858513, “Antibiofilm Activities of Tritrpticin Analogs Against Pathogenic Pseudomonas aeruginosa PA01 Strains” (Molecules, 2025)
